Among the data in PubChem BioAssay AID720588 (Broad Institute, 2013) are activity change, negative = cytotoxicity values, retold here.

The test is described as follows: ATP-based viability loss in HEK293T cells – cell-based, CellTiter-Glo luminescence, cherry-pick, set 3, cytotoxicity control, dose response (AID 720588). As to conditions: HEK293T viability, CellTiter-Glo ATP luminescence, 72 h. On the technique in general: Cellular ATP, detected with luciferase, serves as a proxy for viable cell number.

The source made the active and inactive calls.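 The calls were made as follows: active = fitted curve falls past a set limit of signal loss at no more than twice the top dose; inconclusive = flat fit between 30 and 70% signal loss, or poor fit; inactive = signal rise, flat within 30%, or crossing too high.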

As for `Cc1ccc(S(=O)(=O)Nc2ccc3c(c2)C(=O)N([C@@H](C)CO)C[C@@H](C)[C@H](CN(C)Cc2ccc(C(F)(F)F)cc2)OCCCC[C@H](C)O3)cc1`, the activity change, negative = cytotoxicity (at 26 µM (top of the series)) is -33.3% (inactive).
Consider `COC(=O)C[C@H]1CC[C@@H](NC(=O)Nc2ccc(C(F)(F)F)cc2)[C@H](CO)O1`, for which, where the note is “at 26 µM (top of the series)”, the activity change, negative = cytotoxicity is 9.14% (inactive).
On the same count and under the same terms, then `Cc1ccc2c(=O)n3c(nc2c1)C(Cc1ccc(O)cc1)NC(=O)c1cc2ccccc2cc1-3` (centres undefined), with -16.8% (inactive).
For the compound `CCc1ccc(/C=C2\SC(=S)N(CCCC(=O)Nc3cc(C)on3)C2=O)cc1`, the activity change, negative = cytotoxicity (at 26 µM (top of the series)) was -27.1% (inactive).
Take `C(=Cc1c[nH]c2ccccc12)c1ccc2ccccc2n1`: for the setting “at 26 µM (top of the series)”, the activity change, negative = cytotoxicity was -26.3% (inactive).
For `Cc1nc2ncccn2c1-c1csc(Nc2ccc(O)cc2)n1`, under “at 26 µM (top of the series)”, the activity change, negative = cytotoxicity is 23.7% (inactive).
In the case of `CC(Oc1cccc(Cl)c1)C(=O)NCCCCc1ccccc1` (centres undefined), the activity change, negative = cytotoxicity (at 26 µM (top of the series)) was -2.08% (inactive).
Take `CN(C)c1ccc(N=Nc2ccccc2Br)cc1`: for the setting “at 26 µM (top of the series)”, the activity change, negative = cytotoxicity was -16.8% (inactive).
For the compound `Cc1noc(C)c1NC(=O)Nc1ccc2c(c1)CC(=O)N([C@H](C)CO)C[C@@H](C)[C@@H](CN(C)Cc1ccc(Cl)c(Cl)c1)O2`, the activity change, negative = cytotoxicity (at 26 µM (top of the series)) is 56.7% (inactive).
As to `COC(=O)C[C@@H]1CC[C@@H]2[C@H](COc3ccc(NC(=O)c4cccc(F)c4)cc3C(=O)N2C)O1`, the activity change, negative = cytotoxicity (at 23.5 µM (top of the series)) is -28.5% (inactive).
`CCCNC(=O)N1[C@H](C#N)[C@H](c2ccc(C#Cc3ccc(F)cc3)cc2)[C@H]1CO`: the activity change, negative = cytotoxicity (at 26 µM (top of the series)) was 14.3% (inactive).
In the case of `CCCCNC(=O)C(c1ccc(OCC(=O)OC)c(C(=O)OC)c1)N(CCOC)C(=O)CCCCCN1C(=O)NC(c2ccc(-c3ccccc3)cc2)C(C(=O)OCc2ccccc2)=C1C` (centres undefined), for the setting “at 26 µM (top of the series)”, the activity change, negative = cytotoxicity is 2.6% (inactive).
On to `COc1ccc(C=NNc2nc3ccccc3s2)cc1`, for which the activity change, negative = cytotoxicity (at 26 µM (top of the series)) is -21.8% (inactive).
Regarding `CCc1ccc(S(=O)(=O)c2ccc(-n3nc(C)cc3N)cc2)cc1`, the activity change, negative = cytotoxicity (at 26 µM (top of the series)) was -6.44% (inactive).
On the same count and under the same terms, then `C#CCOCCOCCOCCNc1nc(N2CCN(C(=O)CCCCCCCCCCNC(=O)Cn3cc(C[C@@H](C)O)nn3)CC2)nc(N2CCN(C(=O)CCCCCCCCCCNC(=O)[C@H](CO)n3cc(CCCSC)nn3)CC2)n1`, with 23.5% (inactive); and `O=C(Nc1ccc(OC(=O)N2CCCCC2)cc1)N1CCOCC1`, with -2.87% (inactive).
`C[C@@H]1CN([C@@H](C)CO)C(=O)c2cccc(NC(=O)Nc3ccccc3)c2O[C@@H]1CN(C)Cc1ccc(-c2ccccc2)cc1`: the activity change, negative = cytotoxicity (at 26 µM (top of the series)) was -22.7% (inactive).
Regarding `COc1ccc(C2c3cc4c(cc3OC(NNC(N)=O)C2C)OCO4)cc1` (centres undefined), the activity change, negative = cytotoxicity (at 26 µM (top of the series)) was -16.2% (inactive).
`COc1ccc2oc(-c3ccccc3)cc(=O)c2c1`: the activity change, negative = cytotoxicity (at 26 µM (top of the series)) is -22.5% (inactive).
As for `COc1cc(/C=N/NC(=O)c2csc3c2CCCC3)cc(OC)c1O`, the activity change, negative = cytotoxicity (at 26 µM (top of the series)) was 0.867% (inactive).
In the case of `CC(=O)Nc1ccc(OCC(=O)N(CC(C)C)C2CCS(=O)(=O)C2)cc1` (centres undefined), the activity change, negative = cytotoxicity (at 26 µM (top of the series)) is 10.7% (inactive).
Still for that read-out and setting: the same measure for `CCOc1cc2[nH]c(=S)n(Cc3ccc(C(=O)N4CCN(C)CC4)cc3)c(=O)c2cc1OCC`: -20.5% (inactive); for `CC(=O)Nc1cccc(-c2ccnc3c2CC(C)(C(=O)NCc2ccc(N(C)C)cc2)O3)c1` (centres undefined): -10.9% (inactive); for `COc1cc(/C=C/C(=O)/C=C(O)/C=C/c2ccc(O)c(OC)c2)ccc1O`: -35.9% (inactive).
For the compound `COC(=O)C[C@@H]1CC[C@@H]2[C@H](COc3ccc(NC(=O)c4ccc(C(F)(F)F)cc4)cc3C(=O)N2C)O1`, the activity change, negative = cytotoxicity (at 26 µM (top of the series)) was -2.65% (inactive).
With `N=c1ccn2c(n1)O[C@H]1[C@H](O)[C@@H](CO)O[C@H]12`, the activity change, negative = cytotoxicity (at 26 µM (top of the series)) was -7.04% (inactive).
Consider `C[C@@H]1CN([C@H](C)CO)C(=O)c2cc(NC(=O)CCCCCC(=O)Nc3ccccc3N)ccc2O[C@H]1CN(C)S(=O)(=O)c1ccc(Cl)cc1`, for which the activity change, negative = cytotoxicity (at 26 µM (top of the series)) is -21.5% (inactive).
Regarding `O=C(C[C@@H]1CC[C@@H]2[C@H](COC[C@@H](O)CN2S(=O)(=O)c2ccc(F)cc2)O1)NCc1ccc(Cl)c(Cl)c1`, under “at 26 µM (top of the series)”, the activity change, negative = cytotoxicity is 2.6% (inactive).
In the case of `CN(C)[C@@H]1CCC[C@@H]1OC(=O)C(c1ccccc1)c1ccccc1`, the activity change, negative = cytotoxicity (at 26 µM (top of the series)) was -11.6% (inactive).
In the case of `COc1ccc(C(=O)NCCNc2nc3cc(C)cc(C)c3cc2C#N)c(OC)c1`, the activity change, negative = cytotoxicity (at 26 µM (top of the series)) is -16.7% (inactive).
Consider `Cc1ccc(N2C(=O)c3cccc4c(N)ccc(c34)C2=O)c2cccnc12`, for which the activity change, negative = cytotoxicity (at 26 µM (top of the series)) is -19.1% (inactive).
With `COC(=O)C[C@@H]1CC[C@@H]2[C@H](COc3ccc(NC(=O)c4ccc(F)cc4)cc3C(=O)N2C)O1`, where the note is “at 26 µM (top of the series)”, the activity change, negative = cytotoxicity is 76.4% (inactive).
Take `CCOc1cc(N2CCC(O)CC2)ccc1Nc1ncc2c(n1)N(C)c1ccccc1C(=O)N2C`: the activity change, negative = cytotoxicity (at 26 µM (top of the series)) is 22.8% (inactive).
For `COC(=O)C[C@@H]1CC[C@@H]2[C@H](COc3ccc(NC(=O)Nc4ccc(C#N)cc4)cc3C(=O)N2C)O1`, the activity change, negative = cytotoxicity (at 26 µM (top of the series)) was 46.8% (inactive).
